Measured values as given in patent US11773094B2, “Farnesoid X receptor agonists and uses thereof” (Metacrine, Inc., priority 2018, dated 2023).

Target: T1, hFXR (Homo sapiens, UniProt Q96RI1)
T1 construct: expressed in transfected cells; host or cells: CV-1 cells
T1 sequence (Q96RI1 1-486): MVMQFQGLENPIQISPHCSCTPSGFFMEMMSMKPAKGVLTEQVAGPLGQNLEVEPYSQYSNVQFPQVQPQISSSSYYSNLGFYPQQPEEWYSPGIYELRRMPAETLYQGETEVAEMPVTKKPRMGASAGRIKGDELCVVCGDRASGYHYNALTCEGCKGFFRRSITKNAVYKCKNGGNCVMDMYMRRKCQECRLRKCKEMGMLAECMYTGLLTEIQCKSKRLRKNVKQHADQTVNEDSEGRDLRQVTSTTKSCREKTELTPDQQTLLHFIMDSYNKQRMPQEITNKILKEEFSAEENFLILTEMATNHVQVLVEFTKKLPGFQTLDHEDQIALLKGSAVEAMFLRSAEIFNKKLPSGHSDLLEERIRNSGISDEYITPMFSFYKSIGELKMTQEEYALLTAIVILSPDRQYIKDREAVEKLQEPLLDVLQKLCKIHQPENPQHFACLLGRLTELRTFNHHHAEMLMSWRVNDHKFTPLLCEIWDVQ
T1 sequence (P19793 1-462 partner): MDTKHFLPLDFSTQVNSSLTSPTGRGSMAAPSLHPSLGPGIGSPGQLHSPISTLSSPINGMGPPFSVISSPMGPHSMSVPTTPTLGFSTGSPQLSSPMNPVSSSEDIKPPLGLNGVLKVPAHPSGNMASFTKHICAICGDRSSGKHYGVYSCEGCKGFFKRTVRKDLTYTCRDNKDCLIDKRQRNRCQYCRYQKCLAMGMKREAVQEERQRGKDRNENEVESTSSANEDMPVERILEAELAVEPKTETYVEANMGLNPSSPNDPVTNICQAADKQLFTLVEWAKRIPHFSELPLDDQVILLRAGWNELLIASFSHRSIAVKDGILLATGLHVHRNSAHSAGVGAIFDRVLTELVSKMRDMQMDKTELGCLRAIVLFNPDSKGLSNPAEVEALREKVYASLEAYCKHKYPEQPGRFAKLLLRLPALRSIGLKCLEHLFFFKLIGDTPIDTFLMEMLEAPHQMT
Assay: In Vitro FXR Assay (TK): TK-ECRE-luc reporter in transfected CV-1 cells
Assay type: cell-based
Settings: CV-1 cells transfected with hFXR, hRXR, pCMX-YFP, 18 hrs incubation, luminescence
Method: Example B-1: In Vitro FXR Assay (TK)
CV-1 cells were seeded at a density of 2,000,000 cells in a T175 flask with DMEM+10% charcoal double-stripped FBS and incubated at 37° C. in 5% CO2 for 18 h (O/N).
After 18 h of incubation, the medium in the T175 flask was changed with fresh DMEM+10% charcoal super-stripped serum. In a polypropylene tube, 2500 μL OptiMEM (Life Technologies, Cat #31985-062) was combined with expression plasmids for hFXR, hRXR, TK-ECRE-luc and pCMX-YFP. The tube was then briefly vortexed and incubated at room temperature for 5 minutes. Transfection reagent (X-tremeGENE HP from Roche, Cat #06 366 236 001) was added to the OptiMEM/plasmid mixture vortexed and incubated at room temperature for 20 minutes. Following incubation, the transfection reagent/DNA mixture complex was added to cells in the T175 flask and the cells were incubated at 37° C. in 5% CO2 for 18 h (O/N).
Compounds were serially diluted in DMSO and added to transfected CV-1 cells. The cells were then incubated for 18 hrs. The next day cells were lysed and examined for luminescence.

| EC50 [nM] | SMILES |
| --- | --- |
| ≤ 10 | COc1ccc(C23CCC(CN(c4cc(-c5cnn(C(C)(C)C)c5)ccn4)C(=O)[C@H]4CC[C@H](OC(=O)N5CCC(N(C)C)C5)CC4)(CC2)CC3)cc1C (stereo partly drawn) [Compound 2.26, 4-((4-(1-(tert-Butyl)-1H-pyrazol-4-yl)pyridin-2-yl)((4-(4-methoxy-3-methylphenyl)bicyclo[2.2.2]octan-1-yl)methyl)carbamoyl)cyclohexyl 3-(dimethylamino)pyrrolidine- trans-1-carboxylate] |
| ≤ 10 | COc1ccc(C23CCC(CN(c4cc(-c5coc(C(C)(C)C)n5)ccn4)C(=O)[C@H]4CC[C@H](OC(=O)N5CC(O)C5)CC4)(CC2)CC3)cc1C [Compound 3.10, 4-((4-(2-(tert-Butyl)oxazol-4-yl)pyridin-2-yl)((4-(4-methoxy-3-methylphenyl)bicyclo[2.2.2]octan-1-yl)methyl)carbamoyl)cyclohexyl 3-hydroxyazetidine-trans-1-carboxylate] |
| ≤ 10 | COc1ccc(C23CCC(CN(c4cc(-c5cnn(C(C)(C)C)c5)ccn4)C(=O)[C@H]4CC[C@H](OC(=O)NC5CCOCC5)CC4)(CC2)CC3)cc1C [Compound 3.01, 4-((4-(1-(tert-Butyl)-1H-pyrazol-4-yl)pyridin-2-yl)((4-(4-methoxy-3-methylphenyl)bicyclo[2.2.2]octan-1-yl)methyl)carbamoyl) cyclohexyl (tetrahydro-2H-pyran-4-yl)trans-carbamate] |
| ≤ 10 | COc1ccc(C23CCC(CN(c4cc(-c5cnn(C(C)(C)C)c5)ccn4)C(=O)[C@H]4CC[C@H](OC(=O)N5CCC(O)C5)CC4)(CC2)CC3)cc1C (stereo partly drawn) [Compound 3.03, 4-((4-(1-(tert-Butyl)-1H-pyrazol-4-yl)pyridin-2-yl)((4-(4-methoxy-3-methylphenyl)bicyclo[2.2.2]octan-1-yl)methyl)carbamoyl) (trans-cyclohexyl) 3-hydroxypyrrolidine-1-carboxylate] |
| ≤ 10 | CCC(C)(CC)n1cc(-c2ccnc(N(CC34CCC(c5ccc(OC)c(C)c5)(CC3)CC4)C(=O)[C@H]3CC[C@H](OC(=O)N4CC(O)C4)CC3)c2)cn1 [Compound 4.04, 4-(((4-(4-Methoxy-3-methylphenyl)bicyclo[2.2.2]octan-1-yl)methyl)(4-(1-(3-methylpentan-3-yl)-1H-pyrazol-4-yl)pyridin-2-yl)carbamoyl)cyclohexyl trans-3-hydroxyazetidine-1-carboxylate] |
| ≤ 10 | COc1ncc(C23CCC(CN(c4cc(-c5cnn(C(C)(C)C)c5)ccn4)C(=O)[C@H]4CC[C@H](OC(=O)N5CC(O)C5)CC4)(CC2)CC3)cc1C [Compound 3.05, 4-((4-(1-(tert-Butyl)-1H-pyrazol-4-yl)pyridin-2-yl)((4-(6-methoxy-5-methylpyridin-3-yl)bicyclo[2.2.2]octan-1-yl)methyl)carbamoyl) (trans-cyclohexyl) 3-hydroxyazetidine-1-carboxylate] |
| ≤ 10 | COc1ccc(C23CCC(CN(c4cc(-c5cnc(C(C)(C)C)s5)ccn4)C(=O)[C@H]4CC[C@H](OC(=O)N5CC(O)C5)CC4)(CC2)CC3)cc1C [Compound 3.07, 4-((4-(2-(tert-Butyl)thiazol-5-yl)pyridin-2-yl)((4-(4-methoxy-3-methylphenyl)bicyclo[2.2.2]octan-1-yl)methyl)carbamoyl) cyclohexyl trans-3-hydroxyazetidine-1-carboxylate] |

Second part, the molecule before the results:

| SMILES | EC50 [nM] |
| --- | --- |
| COc1ccc(C23CCC(CN(c4cc(-c5cnc(C(C)(C)C)s5)ccn4)C(=O)[C@H]4CC[C@H](OC(=O)NCCC(C)(C)O)CC4)(CC2)CC3)cc1C [Compound 2.08, 4-((4-(2-(tert-Butyl)thiazol-5-yl)pyridin-2-yl)((4-(4-methoxy-3-methylphenyl)bicyclo[2.2.2]octan-1-yl)methyl)carbamoyl) (trans-cyclohexyl) (3-hydroxy-3-methylbutyl)carbamate] | ≤ 10 |
| COc1ccc(C23CCC(CN(c4cc(-c5coc(C(C)(C)C)n5)ccn4)C(=O)[C@H]4CC[C@H](OC(=O)N5CC(CO)C5)CC4)(CC2)CC3)cc1C [Compound 2.15, 4-((4-(2-(tert-Butyl)oxazol-4-yl)pyridin-2-yl)((4-(4-methoxy-3-methylphenyl)bicyclo[2.2.2]octan-1-yl)methyl)carbamoyl) (trans-cyclohexyl) 3-(hydroxymethyl)azetidine-1-carboxylate] | ≤ 10 |
| COc1ccc([C@H]2CC[C@H](CN(c3cc(-c4coc(C(C)(C)C)n4)ccn3)C(=O)[C@H]3CC[C@H](OC(=O)N4CC(O)C4)CC3)CC2)cc1C [Compound 1.04, trans-4-((4-(2-(tert-Butyl)oxazol-4-yl)pyridin-2-yl)(((trans)-4-(4-methoxy-3-methylphenyl)cyclohexyl)methyl)carbamoyl) cyclohexyl 3-hydroxyazetidine-1-carboxylate] | 10 to 1000 |
| COc1ccc([C@H]2CC[C@H](CN(c3cc(-c4cnn(C(C)(C)C)c4)ccn3)C(=O)[C@H]3CC[C@H](OC(=O)N4CC(O)C4)CC3)CC2)cc1C [Compound 1.08, trans-4-((4-(1-(tert-Butyl)-1H-pyrazol-4-yl)pyridin-2-yl)((trans-4-(4-methoxy-3-methylphenyl)cyclohexyl)methyl)carbamoyl) cyclohexyl 3-hydroxyazetidine-1-carboxylate] | 10 to 1000 |
| COc1ccc([C@H]2CC[C@H](CN(c3cc(-c4cnc(C(C)(C)C)s4)ccn3)C(=O)[C@H]3CC[C@H](OC(=O)N4CC(O)C4(C)C)CC3)CC2)cc1C (stereo partly drawn) [Compound 1.02, trans-4-((4-(2-(tert-Butyl)thiazol-5-yl)pyridin-2-yl)(((trans)-4-(4-methoxy-3-methylphenyl)cyclohexyl)methyl)carbamoyl) cyclohexyl 3-hydroxy-2,2-dimethylazetidine-1-carboxylate] | 10 to 1000 |
| COc1ccc(C23CCC(CN(c4cc(-c5cnn(C(C)(C)C)c5)ccn4)C(=O)[C@H]4CC[C@H](OC(=O)N5CC(OCCO)C5)CC4)(CC2)CC3)cc1C [Compound 2.25, 4-((4-(1-(tert-Butyl)-1H-pyrazol-4-yl)pyridin-2-yl)((4-(4-methoxy-3-methylphenyl)bicyclo[2.2.2]octan-1-yl)methyl)carbamoyl) (trans-cyclohexyl) 3-(2-hydroxyethoxy)azetidine-1-carboxylate] | ≤ 10 |
| COc1ccc(C23CCC(CN(c4cccc(-c5cnn(C(C)(C)C)c5)n4)C(=O)[C@H]4CC[C@H](OC(=O)N5CC(O)C5)CC4)(CC2)CC3)cc1C [Compound 1.15, 4-((6-(1-(tert-Butyl)-1H-pyrazol-4-yl)pyridin-2-yl)((4-(4-methoxy-3-methylphenyl)bicyclo[2.2.2]octan-1-yl)methyl)carbamoyl) (trans-cyclohexyl) 3-hydroxyazetidine-1-carboxylate] | 10 to 1000 |
| COc1ccc(C23CCC(CN(c4cc(-c5cnn(C(C)(C)C)c5)ccn4)C(=O)[C@H]4CC[C@H](OC(=O)N5CC[C@H]5CO)CC4)(CC2)CC3)cc1C [Compound 2.21, (S)-4-((4-(1-(tert-Butyl)-1H-pyrazol-4-yl)pyridin-2-yl)((4-(4-methoxy-3-methylphenyl)bicyclo[2.2.2]octan-1-yl)methyl)carbamoyl)cyclohexyl 2-(hydroxymethyl)azetidine- trans-1-carboxylate] | ≤ 10 |
| COc1ccc(C23CCC(CN(c4cc(-c5coc(C(C)(C)C)n5)ccn4)C(=O)[C@H]4CC[C@H](OC(=O)N5CC[C@H]5CO)CC4)(CC2)CC3)cc1C [Compound 2.11, (S)-4-((4-(2-(tert-Butyl)oxazol-4-yl)pyridin-2-yl)((4-(4-methoxy-3-methylphenyl)bicyclo[2.2.2]octan-1-yl)methyl)carbamoyl)cyclohexyl 2-(hydroxymethyl)azetidine- trans-1-carboxylate] | ≤ 10 |
| COc1ccc([C@H]2CC[C@H](CN(c3cc(-c4cnn(C(C)(C)C)c4)ccn3)C(=O)[C@H]3CC[C@H](OC(=O)N4CCC(O)CC4)CC3)CC2)cc1C [Compound 1.10, trans-4-((4-(1-(tert-Butyl)-1H-pyrazol-4-yl)pyridin-2-yl)((trans-4-(4-methoxy-3-methylphenyl)cyclohexyl)methyl)carbamoyl) cyclohexyl 4-hydroxypiperidine-1-carboxylate] | 10 to 1000 |
